Results as given in PubChem BioAssay AID2060509 (Molecular Pharmacology Branch, DTP, NCI, 2025).

Test system: 485176-168-R4-J1-PDC spheroids with HUVEC/MSC, viability
Assay: Anticancer human tumor 485176-168-R4-J1-PDC patient-derived pancreatic adenocarcinoma cell line growth inhibition [GQUAD]
Conditions: for IC50: curve of first compound; for viability, T/C: stronger effect = lower value
Summary of the method: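 Viability of tumor cells grown as complex spheroids with endothelial and stromal cells, exposed to drug combinations. Top concentration at or near clinical Cmax (else 10 microM), diluted in half-log increments.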

[1] = second compound 0.0316 µM, first compound 0.0316 µM
[2] = second compound 0.0316 µM, first compound 0.1 µM
[3] = second compound 0.0316 µM, first compound 0.316 µM
[4] = second compound 0.0316 µM, first compound 1 µM
[5] = second compound 0.0316 µM, first compound 3.16 µM
[6] = second compound 0.0316 µM, first compound 10 µM
[7] = second compound 0.1 µM, first compound 0.0316 µM
[8] = second compound 0.1 µM, first compound 0.1 µM
[9] = second compound 0.1 µM, first compound 0.316 µM
[10] = second compound 0.1 µM, first compound 1 µM
[11] = second compound 0.1 µM, first compound 3.16 µM
[12] = second compound 0.1 µM, first compound 10 µM
[13] = second compound 0.316 µM, first compound 0.0316 µM
[14] = second compound 0.316 µM, first compound 0.1 µM
[15] = second compound 0.316 µM, first compound 0.316 µM
[16] = second compound 0.316 µM, first compound 1 µM
[17] = second compound 0.316 µM, first compound 3.16 µM
[18] = second compound 0.316 µM, first compound 10 µM
[19] = second compound 1 µM, first compound 0.0316 µM
[20] = second compound 1 µM, first compound 0.1 µM
[21] = second compound 1 µM, first compound 0.316 µM
[22] = second compound 1 µM, first compound 1 µM
[23] = second compound 1 µM, first compound 3.16 µM
[24] = second compound 1 µM, first compound 10 µM
[25] = second compound 3.16 µM, first compound 0.0316 µM
[26] = second compound 3.16 µM, first compound 0.1 µM
[27] = second compound 3.16 µM, first compound 0.316 µM
[28] = second compound 3.16 µM, first compound 1 µM
[29] = second compound 3.16 µM, first compound 3.16 µM
[30] = second compound 3.16 µM, first compound 10 µM
[31] = second compound 10 µM, first compound 0.0316 µM
[32] = second compound 10 µM, first compound 0.1 µM
[33] = second compound 10 µM, first compound 0.316 µM
[34] = second compound 10 µM, first compound 1 µM
[35] = second compound 10 µM, first compound 3.16 µM
[36] = second compound 10 µM, first compound 10 µM
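Further: spheroids exposed to compounds for seven days before readout.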
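Wherever viability, T/C is given: percent viability relative to DMSO vehicle control wells as 100%.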

CC(C)n1c(=O)n(C)c2cnc3cc(F)c(-c4ccc(OCCCN5CCCCC5)nc4)cc3c21 + Cc1cnc(CNC(=O)c2c(=O)c3ccc(N4CCCN(C)CC4)nc3n3c2sc2ccccc23)cn1
IC50 (second compound 0.0316 µM): > 10000 nM | IC50 (second compound 0.1 µM): < 31.6 nM | IC50 (second compound 0.316 µM): < 31.6 nM | IC50 (second compound 1 µM): < 31.6 nM | IC50 (second compound 3.16 µM): < 31.6 nM | IC50 (second compound 10 µM): < 31.6 nM | viability, T/C [1]: 65% | viability, T/C [2]: 50.2% | viability, T/C [3]: 63.1% | viability, T/C [4]: 59.2% | viability, T/C [5]: 62.2% | viability, T/C [6]: 61.2% | viability, T/C [7]: 40.2% | viability, T/C [8]: 47.4% | viability, T/C [9]: 35.6% | viability, T/C [10]: 50% | viability, T/C [11]: 49.2% | viability, T/C [12]: 47.5% | viability, T/C [13]: 39.6% | viability, T/C [14]: 36% | viability, T/C [15]: 30.4% | viability, T/C [16]: 33.5% | viability, T/C [17]: 34.5% | viability, T/C [18]: 41.3% | viability, T/C [19]: 27% | viability, T/C [20]: 30.2% | viability, T/C [21]: 34.2% | viability, T/C [22]: 34.5% | viability, T/C [23]: 30% | viability, T/C [24]: 34.7% | viability, T/C [25]: 36.1% | viability, T/C [26]: 34.3% | viability, T/C [27]: 33.5% | viability, T/C [28]: 34.7% | viability, T/C [29]: 29.5% | viability, T/C [30]: 25.6% | viability, T/C [31]: 27% | viability, T/C [32]: 27.7% | viability, T/C [33]: 28.9% | viability, T/C [34]: 28.2% | viability, T/C [35]: 25.2% | viability, T/C [36]: 24.5%

CC1COCCN1c1cc(-c2ccnn2C)c2ccnc(-c3ccn[nH]3)c2n1 (stereo not drawn) + Cc1cnc(CNC(=O)c2c(=O)c3ccc(N4CCCN(C)CC4)nc3n3c2sc2ccccc23)cn1
IC50 (second compound 0.0316 µM): < 31.6 nM | IC50 (second compound 0.1 µM): < 31.6 nM | IC50 (second compound 0.316 µM): < 31.6 nM | IC50 (second compound 1 µM): < 31.6 nM | IC50 (second compound 3.16 µM): < 31.6 nM | IC50 (second compound 10 µM): < 31.6 nM | viability, T/C [1]: 40.6% | viability, T/C [2]: 15.9% | viability, T/C [3]: 12.9% | viability, T/C [4]: 8.3% | viability, T/C [5]: 10.7% | viability, T/C [6]: 11.9% | viability, T/C [7]: 22.2% | viability, T/C [8]: 12.2% | viability, T/C [9]: 7.9% | viability, T/C [10]: 11.2% | viability, T/C [11]: 10.8% | viability, T/C [12]: 11.7% | viability, T/C [13]: 18.2% | viability, T/C [14]: 9.35% | viability, T/C [15]: 8.47% | viability, T/C [16]: 7.9% | viability, T/C [17]: 10.6% | viability, T/C [18]: 10.4% | viability, T/C [19]: 12.6% | viability, T/C [20]: 9.48% | viability, T/C [21]: 9.86% | viability, T/C [22]: 8.6% | viability, T/C [23]: 11.5% | viability, T/C [24]: 10.6% | viability, T/C [25]: 15% | viability, T/C [26]: 11.8% | viability, T/C [27]: 10.1% | viability, T/C [28]: 10.4% | viability, T/C [29]: 9.56% | viability, T/C [30]: 9.96% | viability, T/C [31]: 16% | viability, T/C [32]: 11% | viability, T/C [33]: 9.84% | viability, T/C [34]: 9.05% | viability, T/C [35]: 9.12% | viability, T/C [36]: 10.4%

CC1COCCN1c1cc(C2(S(C)(=N)=O)CC2)nc(-c2ccnc3[nH]ccc23)n1 (stereo not drawn) + Cc1cnc(CNC(=O)c2c(=O)c3ccc(N4CCCN(C)CC4)nc3n3c2sc2ccccc23)cn1
IC50 (second compound 0.0316 µM): 2310 nM | IC50 (second compound 0.1 µM): 1010 nM | IC50 (second compound 0.316 µM): 196 nM | IC50 (second compound 1 µM): 53.5 nM | IC50 (second compound 3.16 µM): < 31.6 nM | IC50 (second compound 10 µM): < 31.6 nM | viability, T/C [1]: 96.4% | viability, T/C [2]: 82.9% | viability, T/C [3]: 89.2% | viability, T/C [4]: 44.8% | viability, T/C [5]: 59% | viability, T/C [6]: 15.1% | viability, T/C [7]: 73.8% | viability, T/C [8]: 82.6% | viability, T/C [9]: 53.6% | viability, T/C [10]: 39.7% | viability, T/C [11]: 51% | viability, T/C [12]: 12.1% | viability, T/C [13]: 54% | viability, T/C [14]: 62.7% | viability, T/C [15]: 47.2% | viability, T/C [16]: 28.2% | viability, T/C [17]: 36.4% | viability, T/C [18]: 11.9% | viability, T/C [19]: 50.3% | viability, T/C [20]: 51.5% | viability, T/C [21]: 41.6% | viability, T/C [22]: 28.9% | viability, T/C [23]: 36.8% | viability, T/C [24]: 11.9% | viability, T/C [25]: 45.8% | viability, T/C [26]: 41.6% | viability, T/C [27]: 38.5% | viability, T/C [28]: 23.9% | viability, T/C [29]: 28.7% | viability, T/C [30]: 11% | viability, T/C [31]: 41.4% | viability, T/C [32]: 36.7% | viability, T/C [33]: 37.1% | viability, T/C [34]: 27.5% | viability, T/C [35]: 28.1% | viability, T/C [36]: 12.8%

COc1ccc([C@@H](O)c2cc(-c3ncnc4cc(N5CCOCC5)ccc34)c(F)cc2Cl)nn1 + Cc1cnc(CNC(=O)c2c(=O)c3ccc(N4CCCN(C)CC4)nc3n3c2sc2ccccc23)cn1
IC50 (second compound 0.0316 µM): 1100 nM | IC50 (second compound 0.1 µM): 486 nM | IC50 (second compound 0.316 µM): 321 nM | IC50 (second compound 1 µM): 50.1 nM | IC50 (second compound 3.16 µM): < 31.6 nM | IC50 (second compound 10 µM): < 31.6 nM | viability, T/C [1]: 94.3% | viability, T/C [2]: 91.4% | viability, T/C [3]: 84.5% | viability, T/C [4]: 48.5% | viability, T/C [5]: 39.1% | viability, T/C [6]: 24.4% | viability, T/C [7]: 61.6% | viability, T/C [8]: 67.9% | viability, T/C [9]: 45.4% | viability, T/C [10]: 47.9% | viability, T/C [11]: 31.5% | viability, T/C [12]: 18.7% | viability, T/C [13]: 58.9% | viability, T/C [14]: 64.7% | viability, T/C [15]: 46.9% | viability, T/C [16]: 36.9% | viability, T/C [17]: 29.5% | viability, T/C [18]: 16.1% | viability, T/C [19]: 49.7% | viability, T/C [20]: 54.6% | viability, T/C [21]: 37.2% | viability, T/C [22]: 45.5% | viability, T/C [23]: 30.1% | viability, T/C [24]: 14.2% | viability, T/C [25]: 46% | viability, T/C [26]: 43.7% | viability, T/C [27]: 36.6% | viability, T/C [28]: 36% | viability, T/C [29]: 31.9% | viability, T/C [30]: 14.2% | viability, T/C [31]: 33.7% | viability, T/C [32]: 39.7% | viability, T/C [33]: 36.5% | viability, T/C [34]: 29.1% | viability, T/C [35]: 28.8% | viability, T/C [36]: 14.9%
